From publication PMC6201103, “The Small-Compound Inhibitor K22 Displays Broad Antiviral Activity against Different Members of the Family Flaviviridae and Offers Potential as a Panviral Inhibitor” (Antimicrobial Agents and Chemotherapy, 2018)
Values joined by “and” are separate entries in the source; they are usually repeats but may differ in a detail not shown here. Equal entries are not always repeated. Where two headings read alike, the source gives them in different places.

Tests used:
ZIKV [1] = assay: ZIKV infectivity (TCID50 titration of supernatant) and replication (E protein flow cytometry) in K22-treated Vero cells; format: cell-based, Zika virus; conditions: for IC50: Zika virus, Vero cells, MOI 0.1 TCID50/cell
Method: (§1) To test the effect of K22 on flavivirus, hepacivirus, and pestivirus infection, 8 × 10^4 Vero cells were seeded in 12-well dishes (flaviviruses), 5 × 10^4 Huh7-Lunet-N-hCD81-FLuc cells were seeded in 12-well dishes (hepacivirus), or 1 × 10^4 BT cells were seeded in 96-well dishes (pestivirus). At 1 day postseeding, cells were treated with different concentrations of K22 (diluted in DMSO at the concentrations indicated below) for 3 to 4 h and preincubated in 5% CO2 at 37°C. Cells were infected with different viruses at a multiplicity of infection (MOI) of 0.1 TCID50/cell for 1 h at 37°C. For HCV infection, cells were infected with JcR-2a or HCV Jc1 for 3 h at 37°C. Afterwards, cells were washed with prewarmed phosphate-buffered saline (PBS) solution, before cell culture medium supplemented with K22 or the DMSO control at each concentration was added, and incubated at 37°C in a 5% CO2 atmosphere. At 24 h and/or 48 h postinfection (p.i.), supernatants and cells were collected for further analysis.
(§2) Flavivirus replication and the cytopathic effect (CPE) were evaluated from collected cells. Cells in suspension were first labeled with the Fixable Aqua dead cell stain kit (Thermo Fisher Scientific, Waltham, MA, USA) for 30 min on ice, followed by washing with cold PBS. […] After washing, anti-mouse IgG2a conjugated with Alexa Fluor 647 (Thermo Fisher Scientific) was added for 15 min, and the cells were acquired on a FACSCanto II flow cytometer (BD Biosciences, Allschwil, Switzerland). FlowJo (v.9.1) software (TreeStar, Inc., Ashland, OR, USA) was used for analysis. Cell debris and doublets were excluded by electronic gating in forward/side scatter plots. Cell culture supernatants were collected at 24 and 48 h p.i., and the flavivirus titers in Vero cells were determined using the immunoperoxidase monolayer assay (IPMA). For that, supernatants 10-fold diluted in cell culture medium supplemented with 2% (vol/vol) FBS were incubated on Vero cells for 72 h at 37°C in a 5% CO2 atmosphere. At that point, cells were fixed in 4% (wt/vol) PFA for 10 min at room temperature, washed, and immunolabeled with anti-flavivirus group antigen antibody 4G2 diluted in 0.3% (wt/vol) saponin in PBS for 30 min at 37°C and then washed and incubated for another 30 min at 37°C with goat anti-mouse IgG conjugated with horseradish peroxidase (Dako), followed by incubation for 10 to 30 min at room temperature with 3-amino-9-ethylcarbazole (AEC) substrate (Sigma-Aldrich).

HCV [2] = assay: HCV replication, JcR-2a Renilla luciferase reporter virus in Huh7-Lunet-N-hCD81-FLuc cells; format: cell-based, hepatitis C virus
WESSV = assay: microbe, parasite or virus in culture; format: cell-based, Wesselsbron virus; conditions: for IC50: Wesselsbron virus, Vero, read-out: IC50, WESSV infectivity
BVDV SuwaCp [3] = assay: microbe, parasite or virus in culture; format: cell-based, bovine viral diarrhea virus
YFV = assay: microbe, parasite or virus in culture; format: cell-based, yellow fever virus; conditions: for IC50: Yellow fever virus, Vero, read-out: IC50, YFV infectivity
BVDV SuwaNcp [4] = assay: microbe, parasite or virus in culture; format: cell-based, bovine viral diarrhea virus
Vero cells = assay: Cytotoxicity on Vero cells (Fixable Aqua dead cell stain flow cytometry; CytoTox 96 assay); format: cell-based; conditions: concentrations of Fig. 1c, confirmed with commercial kit
Method: (§3) To evaluate the effect of K22 on cell viability, proliferation, as well as cytotoxicity, uninfected cells were treated with the compound at the concentrations specified above or with DMSO as a control. To determine the effect of K22 on cell viability, Vero cells were collected and labeled with the Fixable Aqua dead cell stain kit (Thermo Fisher Scientific) for 30 min on ice, before the cells were washed with cold PBS and fixed for flow cytometry analysis. As a positive control for cell death, cells were heated at 65°C for 30 min. The mean fluorescence intensity (MFI) was determined by flow cytometry analysis on a FACSCanto II flow cytometer (BD Bioscience) and evaluated using FlowJo (v.9.1) software. […] The compound was added at the concentrations indicated above, and cytotoxicity was determined at 24 and/or 48 h p.i. by determination of the absorbance at 490 nm using a plate reader (VersaMax [Molecular Devices, Wokingham, UK] or an EnSpire 2300 multilabel reader [PerkinElmer, Schwerzenbach, Switzerland]). Cell proliferation following compound treatment was determined using a MultiTox-Fluor multiplex cytotoxicity assay (catalog number G9200; Promega) according to the manufacturer's recommendations. The readout was performed using a multilabel reader (EnSpire 2300 multilabel reader; PerkinElmer) upon excitation at ∼400 nm and emission at ∼505 nm. […]

BVDV SuwaNcp [5] = assay: BVDV SuwaNcp replication, qRT-PCR of viral RNA in BT cells; format: cell-based, bovine viral diarrhea virus
JEV = JEV infectivity (TCID50 titration) and replication in K22-treated Vero cells; format: cell-based, Japanese encephalitis virus; conditions: for IC50: Japanese encephalitis virus, MOI 0.1 TCID50/cell
Method: as §1, §2

Vero B4 cells = assay: Proliferation/viability, MultiTox-Fluor multiplex cytotoxicity assay on Vero B4 cells; format: cell-based
Method: as §3

ZIKV [6] = assay: Immunofluorescence analysis of E protein and dsRNA in ZIKV-infected Vero cells; conditions: 30 μM K22, 48 h p.i.
USUV = assay: microbe, parasite or virus in culture; format: cell-based, Usutu virus; conditions: for IC50: Usutu virus, Vero, read-out: IC50, USUV infectivity
[7] = Cytotoxicity, CytoTox 96 nonradioactive cytotoxicity assay on BT cells; format: cell-based, bovine; conditions: bovine, CytoTox 96 assay
Method: as §3

BT cells [8] = assay: as above; format: cell-based, bovine; conditions: concentrations used for BVDV
Method: as §3

[9] = Proliferation, MultiTox-Fluor multiplex cytotoxicity assay on BT cells; format: cell-based, bovine; conditions: bovine, MultiTox-Fluor assay
Method: as §3

BT cells [10] = assay: as above; format: cell-based, bovine
Method: as §3

ZIKV [11] = assay: Combination treatment, ZIKV titers (TCID50) in Vero B4 cells; conditions: for combination index (CI): CompuSyn
BVDV SuwaCp [12] = assay: BVDV SuwaCp replication, qRT-PCR of viral RNA in BT cells; format: cell-based, bovine viral diarrhea virus
HCV [13] = assay: HCV infectivity, supernatant transferred onto naive Huh7-Lunet-N-hCD81-FLuc cells, Renilla luciferase; format: cell-based, hepatitis C virus
[14] = tested on: Huh7-Lunet-N-hCD81-FLuc cells; assay: MTT cell proliferation assay; format: cell-based
[15] = MTT cell proliferation assay; format: cell-based; conditions: human, Huh7-Lunet-N-hCD81-FLuc cells, 48 h posttreatment
ZIKV [16] = assay: Time-of-addition assay, ZIKV in Vero B4 cells; format: cell-based, Zika virus; conditions: K22 added pre- or postinfection, supernatant at 24 h p.i.
WNV = WNV infectivity (TCID50 titration) and replication in K22-treated Vero cells; format: cell-based, West Nile virus; conditions: for IC50: West Nile virus, MOI 0.1 TCID50/cell
Method: as §1, §2

ZIKV [17] = assay: Direct effect on virus stability: ZIKV preincubated with K22, then titrated; format: cell-based, Zika virus; conditions: 2 h at room temperature, increasing K22 concentrations
Method: Shortly, the compound was diluted in DMSO to reach the desired concentrations (0, 5, 10, 20, 30, and 40 μM) and incubated with the cells for 2 h prior to infection, during infection, or after a period of 2, 6, 10, 14, 18, 22, or 24 h. […] Next, the inoculum was discarded, the cells were washed with prewarmed PBS, and culture medium was added to the wells. Additionally, in order to analyze the direct effect of K22 on virus stability, ZIKV in DMEM was incubated for 2 h at room temperature with the different K22 concentrations and titrated in 10-fold serial dilution on Vero cells for measurement of virus infectivity as described above.

[18] = Bovine viral diarrhea virus isolates and strains, 48 h

O=C(N/C(=C\c1ccccc1)C(=O)N1CCC(O)(c2ccc(Br)cc2)CC1)c1ccccc1 [K22, (Z)-N-{3-[4-(4-bromophenyl)-4-hydroxypiperidin-1-yl]-3-oxo-1-phenylprop-1-en-2-yl} benzamide]
SI (selectivity index), ZIKV (ZIKV [1]; 24 h p.i.): 35.6
SI (selectivity index), ZIKV (ZIKV [1]; 48 h p.i.): 39.9
IC50 (ZIKV [1]; 24 h p.i.): 2500 nM
IC50 (ZIKV [1]; 48 h p.i.): 2100 nM
reduction of ZIKV viral titers (ZIKV [1]; higher concentrations of K22, Vero cells): up to 4 orders of magnitude
CC50 relative to IC50 (replication), HCV (HCV [2]; CC50 21.3 μM vs IC50 7.0 μM): 3 fold
IC50 (HCV [2]; Hepatitis C virus, 48 h, read-out: IC50 for replication, HCV): 7 µM
K22 concentrations significantly reducing HCV replication as well as infectivity (HCV [2]; {}): ≥ 20 µM
SI (selectivity index), WESSV (WESSV): 15.2 and 12.5
K22 concentrations necessary to significantly inhibit WESSV (WESSV; Vero cells): ≥ 20 µM
IC50 (WESSV; 24 h): 5.9 µM
IC50 (WESSV; 48 h): 6.8 µM
SI (selectivity index), BVDV SuwaCp (BVDV SuwaCp [3]): >24.6
IC50 (BVDV SuwaCp [3]; Bovine viral diarrhea virus isolates and strains, read-out: IC50 for infectivity, BVDV SuwaCp): 14.2 µM
K22 concentrations reducing YFV replication and infectivity (YFV): ≥ 5 µM
SI (selectivity index), YFV (YFV): 24.3 and 36.7
IC50 (YFV; 24 h): 3700 nM
IC50 (YFV; 48 h): 2300 nM
SI (selectivity index), BVDV SuwaNcp (BVDV SuwaNcp [4]): >16.4
K22 concentration necessary to significantly reduce infectivity of BVDV SuwaNcp (BVDV SuwaNcp [4]; BT cells): ≥ 40 µM
IC50 (BVDV SuwaNcp [4]; Bovine viral diarrhea virus isolates and strains, read-out: IC50 for infectivity, BVDV SuwaNcp): 21.4 µM
cytotoxic effect of K22 (Vero cells): no cytotoxic effect
IC50 (BVDV SuwaNcp [5]; [18]): 34.7 µM
K22 concentrations necessary to significantly reduce viral replication of BVDV SuwaNcp (BVDV SuwaNcp [5]; qRT-PCR, BT cells): ≥ 40 µM
SI (selectivity index), JEV (JEV; 24 h p.i.): 193.9
SI (selectivity index), JEV (JEV; 48 h p.i.): 19.1
IC50 (JEV; 24 h p.i., Vero cells): 500 nM
IC50 (JEV; 48 h p.i., Vero cells): 4400 nM
K22 concentrations reducing JEV replication and infectivity (JEV; dose-dependent, Vero cells): ≥ 5 µM
K22 concentrations that mildly affected cell proliferation (Vero B4 cells): ≥ 30 µM
viral E protein and dsRNA markers of infection (ZIKV [6]): severely reduced
IC50 (USUV; 24 h): 9 µM
IC50 (USUV; 48 h): ~10 µM
K22 concentrations necessary to significantly inhibit USUV (USUV; Vero cells): ≥ 20 µM
CC50 [7]: > 1 mM
cellular toxicity of K22 (BT cells [8]): no cellular toxicity
CC50 [9]: > 350 µM
K22 concentrations affecting cell proliferation (BT cells [10]): ≥ 30 µM
reduction of ZIKV viral titers (ZIKV [11]; 5 to 10 μM K22 combined with ≥10 IU IFN-α, 24 h p.i., no further impact on cell proliferation): at least 3 orders of magnitude
combination index (CI) (ZIKV [11]; K22 10 to 30 μM with 10 IU IFN-α, slight synergism): < 1
combination index (CI) (ZIKV [11]; K22 and RBV, concentrations causing only partial inhibition, additive effect): about 1
effect of combination on antiviral effect of K22 (ZIKV [11]; K22 with either 0.1 or 1 μg/ml RBV): did not improve the antiviral effect of K22
IC50 (BVDV SuwaCp [12]; [18]): 15.5 µM
K22 concentrations necessary to significantly reduce viral replication of BVDV SuwaCp (BVDV SuwaCp [12]; qRT-PCR, BT cells): ≥ 20 µM
SI (selectivity index), HCV (HCV [13]): 9.7
IC50 (HCV [13]; Hepatitis C virus, 72 h, read-out: IC50 for infectivity, HCV): 2200 nM
K22 concentrations affecting the cells used for infection [14]: ≥ 20 µM
CC50 at 48 h [15]: 21.3 µM
antiviral activity by time of addition (ZIKV [16]): displayed antiviral activity when added at several hours postinfection
SI (selectivity index), WNV (WNV; 24 h p.i.): 32.3
SI (selectivity index), WNV (WNV; 48 h p.i.): 10.0
K22 concentrations significantly reducing WNV replication and infectivity (WNV; Vero cells): ≥ 10 µM
IC50 (WNV; 24 h p.i., Vero cells): 2.8 µM
IC50 (WNV; 48 h p.i., Vero cells): 8.4 µM
effect of preincubation of ZIKV with K22 on infectivity (ZIKV [17]): does not affect ZIKV infectivity

NC(=O)c1ncn([C@@H]2O[C@H](CO)[C@@H](O)[C@H]2O)n1 [RBV, ribavirin, reference compound]
effect of single treatment on ZIKV viral titers (ZIKV [11]; 10 μg/ml RBV, 24 h p.i., Vero B4 cells): moderately reduced the viral titers
effect of single treatment on ZIKV viral titers (ZIKV [11]; 100 μg/ml and 1,000 μg/ml RBV, 24 h p.i., Vero B4 cells): significantly reduced viral titers

IFN-α
effect of IFN-α on cell viability (Vero B4 cells): no effect on cell viability
IFN-α doses effective against ZIKV (ZIKV [11]; single treatment, 24 h p.i., Vero B4 cells): ≥ 10 IU
